Where “and” joins values, the source holds several entries; their conditions need not be identical. Equal values may be shown once.
System: intracranially implanted human glioblastoma SF-295
Assay: Antitumor activity against intracranially implanted SF-295 glioblastoma in NCr-nu mice (RP-38)
Format: in vivo
Settings: for DAYS OF DEATH: individual animals
From the text: Four studies were initiated to evaluate the response of U251 and SF-295 glioblastomas to treatment with product (Ia). In the two studies, U251 and SF-295 glioblastomas were initiated from intracranially implanted cells at a volume of 10^6 cells per mouse. The treatment schedule of the intracranially implanted U251 glioblastoma cells was iv, once daily, every sixth day for three treatments (q6d×3), beginning on day four post-implant. The treatment schedule of the intracranially implanted SF-295 glioblastoma cells was iv, once daily, every fourth day for three treatments (q4d×3), beginning on day two post-implant. For the intracranially implanted studies, the compounds were evaluated based on their ability to increase the life span of the animals. The positive control used for both of these tumor models was nitrosourea.
In these experiments, general DCTD, NCI techniques and procedures for in vivo efficacy studies were modified for special application (In Vivo Cancer Models, NIH Publication No. 84-2635, 1984). These studies were conducted in approved facilities (AAALAC Registration No. 000643, AALAS Membership No. 840723001, USDA Registration No. 64-R-001, OPPR, PHS, NIH, AWA, Assurance No. A3046-01). These facilities are ISO 9001 certified. The oversight committee was the Southern Research Institutional Animal Care and Use Committee; the protocol used was IACUC No. 96-8-50.
Product (Ia) was prepared in 5% ethanol, 5% tween 80, 90% D5W
Nitrosourea was prepared in 2% ethanol, 98% physiological saline.
Product (Ia) was administered in 0.4 ml/mouse based on a total body weight average.
Nitrosourea was administered 0.1 ml/10 g of body weight.
Any intracranially implanted animal that appeared to be moribund was euthanized for humane purposes. Since efficacy studies fall within this category of basic research, experiment termination was based on resultants that were determined to be optimal.
Six to eight week old athymic NCr-nu female mice were used for the intracranially implanted U251 trials. Six to eight week old athymic NCr-nu male mice were used for the intracranially implanted SF-295 trials.
As previously mentioned, this experiment was designed to evaluate the activity of product (Ia) against intracranially U251 and SF-295 glioblastomas in athymic MCr-nu mice. The dosages for product (Ia) were 30, 20 and 13.4 mg/kg/dose. For the two intracranially implanted experiments, cells were prepared at a concentration of 3.33×10^7 cells per ml of media and injected at a volume of 0.03 ml per mouse. The cells were injected into the cerebrum to the right of the midline with a 25 gauge, ⅜ inch, stainless steel needle. Cultured cells were used for the U251 experiment (RP-36). The treatment schedule was q6d×3, iv, beginning on day four, post-implant. A tumor brei, made from solid tumor, was used for the SF-295 experiment (RP-38). The treatment schedule was q4d×3, iv, beginning on day two, post-implant. Nitrosourea was given in each experiment for comparative purposes because of its known activity against CNS tumors. The dosages were 27, 18 and 12 mg/kg/dose and the treatment schedule was the same as the treatment schedule for product (Ia) in each experiment.

[1] = 13.4 mg/kg/dose IV Q4D×3(2), listed as product (Ia)

CO[C@H]1C(=O)[C@]2(C)[C@@H](OC)C[C@H]3OC[C@@]3(OC(C)=O)[C@H]2[C@H](OC(=O)c2ccccc2)[C@]2(O)C[C@H](OC(=O)[C@H](O)[C@@H](NC(=O)OC(C)(C)C)c3ccccc3)C(C)=C1C2(C)C [Product (Ia), 4α-acetoxy-2α-benzoyloxy-5β, 20-epoxy-1β-hydroxy-7β, 10β-dimethoxy-9-oxo-11-taxen-13α-yl (2R,3S)-3 tert-butoxycarbonylamino-2-hydroxy-3-phenylpropionate]
68 DAY SURV./TOTAL (13.4 mg/kg/dose IV Q4D×3(2)): 1/10
% ILS (13.4 mg/kg/dose IV Q4D×3(2)): +81%
MEDIAN DAY OF DEATH (13.4 mg/kg/dose IV Q4D×3(2)): 29.0 days
MEAN ANIMAL WEIGHT (13.4 mg/kg/dose IV Q4D×3(2), day 2): 25 GRAMS
MEAN ANIMAL WEIGHT (13.4 mg/kg/dose IV Q4D×3(2), day 5): 24 GRAMS
MEAN ANIMAL WEIGHT (13.4 mg/kg/dose IV Q4D×3(2), day 8): 23 GRAMS
MEAN ANIMAL WEIGHT (13.4 mg/kg/dose IV Q4D×3(2), day 13): 22 GRAMS
MEAN ANIMAL WEIGHT (13.4 mg/kg/dose IV Q4D×3(2), day 15): 20 GRAMS
MEAN ANIMAL WEIGHT (13.4 mg/kg/dose IV Q4D×3(2), day 19): 21 GRAMS
MEAN ANIMAL WEIGHT (13.4 mg/kg/dose IV Q4D×3(2), day 22): 22 GRAMS
MEAN ANIMAL WEIGHT (13.4 mg/kg/dose IV Q4D×3(2), day 26): 21 GRAMS
MEAN ANIMAL WEIGHT (13.4 mg/kg/dose IV Q4D×3(2), day 29): 22 GRAMS
MEAN ANIMAL WEIGHT (13.4 mg/kg/dose IV Q4D×3(2), day 33): 22 GRAMS
MEAN ANIMAL WEIGHT (13.4 mg/kg/dose IV Q4D×3(2), day 37): 26 GRAMS
MEAN ANIMAL WEIGHT (13.4 mg/kg/dose IV Q4D×3(2), day 40): 22 GRAMS
MEAN ANIMAL WEIGHT (13.4 mg/kg/dose IV Q4D×3(2), day 43): 27 GRAMS
DAYS OF DEATH (13.4 mg/kg/dose IV Q4D×3(2)): 34 day and 41 day and 25 day (2×) and 29 day (3×) and 30 day and 32 day
68 DAY SURV./TOTAL [1]: one 68-day survivor out of ten animals
% ILS [1]: 81%
mean weight loss through the treatment period (20 mg/kg dose iv q4d×3): 6 g
68 DAY SURV./TOTAL (20.0 mg/kg/dose IV Q4D×3(2)): 0/10
% ILS (20.0 mg/kg/dose IV Q4D×3(2)): +94%
MEDIAN DAY OF DEATH (20.0 mg/kg/dose IV Q4D×3(2)): 31.0 days
MEAN ANIMAL WEIGHT (20.0 mg/kg/dose IV Q4D×3(2), day 2): 25 GRAMS
MEAN ANIMAL WEIGHT (20.0 mg/kg/dose IV Q4D×3(2), day 5): 24 GRAMS
MEAN ANIMAL WEIGHT (20.0 mg/kg/dose IV Q4D×3(2), day 8): 21 GRAMS
MEAN ANIMAL WEIGHT (20.0 mg/kg/dose IV Q4D×3(2), day 13): 19 GRAMS
MEAN ANIMAL WEIGHT (20.0 mg/kg/dose IV Q4D×3(2), day 15): 18 GRAMS
MEAN ANIMAL WEIGHT (20.0 mg/kg/dose IV Q4D×3(2), day 19): 19 GRAMS
MEAN ANIMAL WEIGHT (20.0 mg/kg/dose IV Q4D×3(2), day 22): 21 GRAMS
MEAN ANIMAL WEIGHT (20.0 mg/kg/dose IV Q4D×3(2), day 26): 22 GRAMS
MEAN ANIMAL WEIGHT (20.0 mg/kg/dose IV Q4D×3(2), day 29): 19 GRAMS
MEAN ANIMAL WEIGHT (20.0 mg/kg/dose IV Q4D×3(2), day 33): 23 GRAMS
MEAN ANIMAL WEIGHT (20.0 mg/kg/dose IV Q4D×3(2), day 37): 29 GRAMS
MEAN ANIMAL WEIGHT (20.0 mg/kg/dose IV Q4D×3(2), day 40): 29 GRAMS
MEAN ANIMAL WEIGHT (20.0 mg/kg/dose IV Q4D×3(2), day 43): 29 GRAMS
DAYS OF DEATH (20.0 mg/kg/dose IV Q4D×3(2)): 33 day (2×) and 37 day and 54 day and 13 day (2×) and 16 day and 31 day (3×)
% ILS (20.0 mg/kg/dose IV Q4D×3(2), listed as product (Ia)): 94%
mean weight loss through the treatment period (30 mg/kg dose iv q4d×3): 7 g
68 DAY SURV./TOTAL (30.0 mg/kg/dose IV Q4D×3(2)): 0/10
% ILS (30.0 mg/kg/dose IV Q4D×3(2)): −9%
MEDIAN DAY OF DEATH (30.0 mg/kg/dose IV Q4D×3(2)): 14.5 days
MEAN ANIMAL WEIGHT (30.0 mg/kg/dose IV Q4D×3(2), day 2): 25 GRAMS
MEAN ANIMAL WEIGHT (30.0 mg/kg/dose IV Q4D×3(2), day 5): 23 GRAMS
MEAN ANIMAL WEIGHT (30.0 mg/kg/dose IV Q4D×3(2), day 8): 18 GRAMS
MEAN ANIMAL WEIGHT (30.0 mg/kg/dose IV Q4D×3(2), day 13): 18 GRAMS
MEAN ANIMAL WEIGHT (30.0 mg/kg/dose IV Q4D×3(2), day 15): 19 GRAMS
MEAN ANIMAL WEIGHT (30.0 mg/kg/dose IV Q4D×3(2), day 19): 19 GRAMS
MEAN ANIMAL WEIGHT (30.0 mg/kg/dose IV Q4D×3(2), day 22): 21 GRAMS
MEAN ANIMAL WEIGHT (30.0 mg/kg/dose IV Q4D×3(2), day 26): 21 GRAMS
MEAN ANIMAL WEIGHT (30.0 mg/kg/dose IV Q4D×3(2), day 29): 19 GRAMS
MEAN ANIMAL WEIGHT (30.0 mg/kg/dose IV Q4D×3(2), day 33): 20 GRAMS
MEAN ANIMAL WEIGHT (30.0 mg/kg/dose IV Q4D×3(2), day 37): 18 GRAMS
MEAN ANIMAL WEIGHT (30.0 mg/kg/dose IV Q4D×3(2), day 40): 21 GRAMS
MEAN ANIMAL WEIGHT (30.0 mg/kg/dose IV Q4D×3(2), day 43): 17 GRAMS
DAYS OF DEATH (30.0 mg/kg/dose IV Q4D×3(2)): 40 day and 41 day and 47 day and 11 day and 13 day (2×) and 14 day (2×) and 15 day and 30 day
activity against intracranially implanted SF-295 glioblastoma (iv q4d×3): quite active
MTD (iv q4d×3, SF-295 experiment RP-38): 13.4 mg/kg/dose

— patent US6346543B1, “Use of a taxoid to treat abnormal cell proliferation in the brain” (priority 1998, dated 2002)
